Test results reported in patent publication US7642255B2, “Compounds and compositions as protein kinase inhibitors” (IRM LLC, priority 2004, dated 2010).

Key:
Type in all cases: cell-based
[1] = molecular target: T1, E255V Bcr-abl (Homo sapiens, UniProt P00519, E255V); assay: Antiproliferative effect on Ba/F3 cells expressing mutant BCR-Abl E255V
T1 construct: BCR (N-terminal fusion partner); expressed in transfected cells; host or cells: Ba/F3 cells; the other entry of the earlier key: BCR (P11274, Breakpoint cluster region protein)
Procedure: (§1) 32D-p210 cells are plated into 96 well TC plates at a density of 15,000 cells per well. 50 μL of two fold serial dilutions of the test compound (Cmax is 40 μM) are added to each well (STI571 is included as a positive control). After incubating the cells for 48 hours at 37° C., 5% CO2, 15 μL of MTT (Promega) is added to each well and the cells are incubated for an additional 5 hours. The optical density at 570 nm is quantified spectrophotometrically and IC50 values, the concentration of compound required for 50% inhibition, determined from a dose response curve.
(§2) Compounds of the invention are tested for their antiproliferative effect on Ba/F3 cells expressing either wild type or the mutant forms of BCR-Abl (G250E, E255V, T3151, F317L, M351T) that confers resistance or diminished sensitivity to STI571. The antiproliferative effect of these compounds on the mutant-BCR-Abl expressing cells and on the non transformed cells were tested at 10, 3.3, 1.1 and 0.37 μM as described above (in media lacking IL3). The IC50 values of the compounds lacking toxicity on the untransformed cells were determined from the dose response curves obtained as describe above.

[2] = molecular target: T2, F317L Bcr-abl (Homo sapiens, UniProt P00519, F317L); assay: Antiproliferative effect on Ba/F3 cells expressing mutant BCR-Abl F317L
T2 construct: BCR (N-terminal fusion partner); expressed in transfected cells; host or cells: Ba/F3 cells; the other entry of the earlier key: BCR (P11274, Breakpoint cluster region protein)
Procedure: as §1, §2

[3] = molecular target: T3, M351T Bcr-abl (Homo sapiens, UniProt P00519, M351T); assay: Antiproliferative effect on Ba/F3 cells expressing mutant BCR-Abl M351T
T3 construct: BCR (N-terminal fusion partner); expressed in transfected cells; host or cells: Ba/F3 cells; the other entry of the earlier key: BCR (P11274, Breakpoint cluster region protein)
Procedure: as §1, §2

[4] = molecular target: T4, G250E Bcr-abl (Homo sapiens, UniProt P00519, G250E); assay: Antiproliferative effect on Ba/F3 cells expressing mutant BCR-Abl G250E
T4 construct: BCR (N-terminal fusion partner); expressed in transfected cells; host or cells: Ba/F3 cells; the other entry of the earlier key: BCR (P11274, Breakpoint cluster region protein)
Procedure: as §1, §2

[5] = molecular target: T5, T3151 Bcr-abl (Homo sapiens, UniProt P00519, T315I); assay: Antiproliferative effect on Ba/F3 cells expressing mutant BCR-Abl T3151
T5 construct: BCR (N-terminal fusion partner); expressed in transfected cells; host or cells: Ba/F3 cells
Procedure: as §1, §2

[6] = molecular target: T6, wild type Bcr-abl (Homo sapiens, UniProt P00519); assay: Antiproliferative effect on Ba/F3 cells expressing wild type BCR-Abl
T6 construct: BCR (N-terminal fusion partner); expressed in transfected cells; host or cells: Ba/F3 cells; the other entry of the earlier key: BCR (P11274, Breakpoint cluster region protein)
Procedure: as §1, §2

IC50 [1]: 5 nM
IC50 [2]: 5 nM
IC50 [3]: 5 nM
IC50 [4]: 2 nM
IC50 [5]: 3 nM
IC50 [6]: 5 nM
SMILES: Cc1ccc(NC(=O)c2cccc(C(F)(F)F)c2)cc1N1Cc2cnc(Nc3cccc(N)c3)nc2N(C)C1=O [Example 2, N-{3-[7-(3-Amino-phenylamino)-1-methyl-2-oxo-1,4-dihydro-2H-pyrimido[4,5-d]pyrimidin-3-yl]-4-methyl-phenyl}-3-trifluoromethyl-benzamide]
